Tests used:
[1] = test system: small flower umbrella sedge; assay: Test B flooded paddy test; type: in vivo, Cyperus difformis; conditions: 1000 g ai/ha, scale 0 to 100 (0 no effect, 100 complete control)
Outline: (§1)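 Scale 0–100: zero equals no visible effect, 100 complete control, judged by eye relative to controls. Timing: 13 to 15 days in greenhouse post-treatment. Growth stage at spraying: two leaves (paddy) or one to four leaves, 2–18 cm (postemergence).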

morningglory = assay: Test B pre-/postemergence herbicide test; type: in vivo, Ipomoea coccinea; conditions: for Plant response rating (0 to 100 scale), Morningglory: 0 is no effect, 100 is complete control, preemergence
Outline: (§2)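 Formulation: non-phytotoxic solvent mix with surfactant. Timing: preemergence on seed and postemergence on 2–18 cm plants, applied concurrently. Readout after 13–15 d greenhouse: visual 0–100 control rating against controls.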

Surinam grass = assay: Test B pre-/postemergence herbicide test; type: in vivo, Urochloa decumbens; conditions: for Plant response rating (0 to 100 scale), Surinam Grass: 0 is no effect, 100 is complete control, preemergence
Outline: (§3)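 Flooded paddy rice and barnyardgrass were treated at the 2-leaf stage; upland plantings received compound either on sown seed or on 1- to 4-leaf seedlings. All were kept 13–15 days in a greenhouse and scored visually, 0–100, relative to untreated plants.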

cocklebur = assay: Test B pre-/postemergence herbicide test; type: in vivo, Xanthium strumarium; conditions: for Plant response rating (0 to 100 scale), Cocklebur: 0 is no effect, 100 is complete control, preemergence
Outline: as §2

ducksalad = assay: Test B flooded paddy test; type: in vivo, Heteranthera limosa; conditions: 1000 g ai/ha, scale 0 to 100 (0 no effect, 100 complete control)
Outline: as §1

lambsquarters = assay: Test B pre-/postemergence herbicide test; type: in vivo, Chenopodium album
Outline: as §3

rice = assay: Test B flooded paddy test; type: in vivo, Oryza sativa; conditions: 1000 g ai/ha, scale 0 to 100 (0 no effect, 100 complete control)
Outline: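 After treating 2-leaf paddy plants or 2–18 cm postemergence plants (1 to 4 leaves) with formulated chemical, researchers kept them in a greenhouse for 13–15 days. Effects were judged visually versus controls: 0 indicates none, 100 total control.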

velvetleaf = assay: Test B pre-/postemergence herbicide test; type: in vivo, Abutilon theophrasti; conditions: for Plant response rating (0 to 100 scale), Velvetleaf: 0 is no effect, 100 is complete control, preemergence
Outline: as §3

blackgrass = assay: Test B postemergence herbicide test; type: in vivo, Alopecurus myosuroides
Outline: as §1

wild oat = assay: Test B postemergence herbicide test; type: in vivo, Avena fatua
Outline: as §1

wheat = assay: Test B postemergence herbicide test; type: in vivo, Triticum aestivum; design: key to Wheat plant response rating: 0 = no effect, 100 = complete control
Outline: as §1

corn = assay: Test B pre-/postemergence herbicide test; type: in vivo, Zea mays; conditions: for Plant response rating (0 to 100 scale), Corn: 0 is no effect, 100 is complete control, preemergence
Outline: as §3

barnyardgrass [2] = assay: Test B flooded paddy test; type: in vivo, Echinochloa crus-galli; conditions: 1000 g ai/ha, scale 0 to 100 (0 no effect, 100 complete control)
Outline: as §1

pigweed = assay: Test B pre-/postemergence herbicide test; type: in vivo, Amaranthus retroflexus; conditions: for Plant response rating (0 to 100 scale), Pigweed: 0 is no effect, 100 is complete control, preemergence
Outline: as §3

giant foxtail = assay: Test B pre-/postemergence herbicide test; type: in vivo, Setaria faberi; conditions: for Plant response rating (0 to 100 scale), Foxtail, Giant: 0 is no effect, 100 is complete control, preemergence
Outline: as §3

large crabgrass = assay: Test B pre-/postemergence herbicide test; type: in vivo, Digitaria sanguinalis; conditions: for Plant response rating (0 to 100 scale), Crabgrass, Large: 0 is no effect, 100 is complete control, preemergence
Outline: as §3

barnyardgrass [3] = assay: Test B pre-/postemergence herbicide test; type: in vivo, Echinochloa crus-galli; conditions: for Plant response rating (0 to 100 scale), Barnyardgrass: 0 is no effect, 100 is complete control, preemergence; for Barnyardgrass plant response rating: scale 0 (no effect) to 100 (complete control)
Outline: as §2

[4] = 125 g ai/ha, visual rating, scale 0 (no effect) to 100 (complete control), postemergence
[5] = Postemergence, 500 g ai/ha, scale 0 (no effect) to 100 (complete control)
[6] = 500 g ai/ha, scale 0 to 100, 0 no effect, 100 complete control, preemergence
[7] = postemergence, 125 g ai/ha, scale 0 to 100

COC(=O)c1ccc(F)c(NC(=O)c2nn(C(C)C)nc2C)c1 [Compound 398]
Sedge, Umbrella plant response rating [1]: 80
Plant response rating (0 to 100 scale), Morningglory (morningglory; 125 g ai/ha): 0
Morningglory plant response rating (morningglory; [4]): 0
Morningglory plant response rating (morningglory; [5]): 20
Plant response rating (0 to 100 scale), Surinam Grass (Surinam grass; 125 g ai/ha): 0
Surinam Grass plant response rating (Surinam grass; [4]): 10
Surinam Grass plant response rating (Surinam grass; [5]): 10
Plant response rating (0 to 100 scale), Cocklebur (cocklebur; 125 g ai/ha): 0
Cocklebur plant response rating (cocklebur; [4]): 0
Cocklebur plant response rating (cocklebur; [5]): 10
Ducksalad plant response rating (ducksalad): 0
Plant response rating (0 to 100 scale), Lambsquarters (lambsquarters; 125 g ai/ha, 0 is no effect, 100 is complete control, preemergence): 0
Lambsquarters plant response rating (lambsquarters; [4]): 10
Lambsquarters plant response rating (lambsquarters; [5]): 10
Rice plant response rating (rice): 10
Plant response rating (0 to 100 scale), Velvetleaf (velvetleaf; 125 g ai/ha): 0
Velvetleaf plant response rating (velvetleaf; [4]): 20
Velvetleaf plant response rating (velvetleaf; [5]): 60
Blackgrass plant response rating (blackgrass; [4]): 0
Blackgrass plant response rating (blackgrass; [5]): 10
Oat, Wild plant response rating (wild oat; [4]): 0
Oat, Wild plant response rating (wild oat; [5]): 0
Wheat plant response rating (wheat; [4]): 0
Wheat plant response rating (wheat; [6]): 0
Wheat plant response rating (wheat; [5]): 10
Plant response rating (0 to 100 scale), Corn (corn; 125 g ai/ha): 0
Corn plant response rating (corn; [4]): 0
Corn plant response rating (corn; [5]): 20
Barnyardgrass plant response rating (barnyardgrass [2]): 0
Plant response rating (0 to 100 scale), Pigweed (pigweed; 125 g ai/ha): 0
Pigweed plant response rating (pigweed; [4]): 0
Pigweed plant response rating (pigweed; [5]): 10
Plant response rating (0 to 100 scale), Foxtail, Giant (giant foxtail; 125 g ai/ha): 0
Foxtail, Giant plant response rating (giant foxtail; [4]): 20
Foxtail, Giant plant response rating (giant foxtail; [5]): 30
Plant response rating (0 to 100 scale), Crabgrass, Large (large crabgrass; 125 g ai/ha): 0
Crabgrass, Large plant response rating (large crabgrass; [4]): 0
Crabgrass, Large plant response rating (large crabgrass; [5]): 10
Plant response rating (0 to 100 scale), Barnyardgrass (barnyardgrass [3]; 125 g ai/ha): 0
Barnyardgrass plant response rating (barnyardgrass [3]; 125 g ai/ha, visual rating, postemergence): 0
Barnyardgrass plant response rating (barnyardgrass [3]; Postemergence, 500 g ai/ha): 0

CCc1nn(C(C)(C)C)nc1C(=O)Nc1cccc(C(=O)N2CCCCC2)c1 [Compound 416]
Sedge, Umbrella plant response rating [1]: 80
Plant response rating (0 to 100 scale), Morningglory (morningglory; 125 g ai/ha): 0
Morningglory plant response rating (morningglory; [5]): 70
Morningglory plant response rating (morningglory; [7]): 30
Plant response rating (0 to 100 scale), Surinam Grass (Surinam grass; 125 g ai/ha): 60
Surinam Grass plant response rating (Surinam grass; [5]): 30
Surinam Grass plant response rating (Surinam grass; [7]): 20
Plant response rating (0 to 100 scale), Cocklebur (cocklebur; 125 g ai/ha): 0
Cocklebur plant response rating (cocklebur; [5]): 60
Cocklebur plant response rating (cocklebur; [7]): 50
Ducksalad plant response rating (ducksalad): 90
Lambsquarters plant response rating (lambsquarters; [5]): 80
Lambsquarters plant response rating (lambsquarters; [7]): 70
Rice plant response rating (rice): 70
Plant response rating (0 to 100 scale), Velvetleaf (velvetleaf; 125 g ai/ha): 10
Velvetleaf plant response rating (velvetleaf; [5]): 50
Velvetleaf plant response rating (velvetleaf; [7]): 40
Blackgrass plant response rating (blackgrass; [5]): 30
Blackgrass plant response rating (blackgrass; [7]): 20
Oat, Wild plant response rating (wild oat; [5]): 40
Oat, Wild plant response rating (wild oat; [7]): 30
Wheat plant response rating (wheat; [6]): 60
Wheat plant response rating (wheat; [5]): 30
Wheat plant response rating (wheat; [7]): 20
Plant response rating (0 to 100 scale), Corn (corn; 125 g ai/ha): 20
Corn plant response rating (corn; [5]): 30
Corn plant response rating (corn; [7]): 20
Barnyardgrass plant response rating (barnyardgrass [2]): 60
Plant response rating (0 to 100 scale), Pigweed (pigweed; 125 g ai/ha): 70
Pigweed plant response rating (pigweed; [5]): 80
Pigweed plant response rating (pigweed; [7]): 60
Plant response rating (0 to 100 scale), Foxtail, Giant (giant foxtail; 125 g ai/ha): 70
Foxtail, Giant plant response rating (giant foxtail; [5]): 30
Foxtail, Giant plant response rating (giant foxtail; [7]): 20
Plant response rating (0 to 100 scale), Crabgrass, Large (large crabgrass; 125 g ai/ha): 100
Crabgrass, Large plant response rating (large crabgrass; [5]): 40
Crabgrass, Large plant response rating (large crabgrass; [7]): 30
Plant response rating (0 to 100 scale), Barnyardgrass (barnyardgrass [3]; 125 g ai/ha): 70
Barnyardgrass plant response rating (barnyardgrass [3]; Postemergence, 125 g ai/ha): 20
Barnyardgrass plant response rating (barnyardgrass [3]; Postemergence, 500 g ai/ha): 30

Source: US20060069132A1, “Azolecarboxamide herbicides” (priority 2004, published 2006)
